This is an account of results in patent publication US9260439B2, “Dihydropyrrolopyrimidine derivatives” (PFIZER INC., priority 2014, dated 2016).

Structures are written as SMILES. Counter-ions that a name gives are not always drawn.

Chain of truncated PI3Kα (p110α/iSH2 p85α) (P42336 whole entry, the tested form may be a part): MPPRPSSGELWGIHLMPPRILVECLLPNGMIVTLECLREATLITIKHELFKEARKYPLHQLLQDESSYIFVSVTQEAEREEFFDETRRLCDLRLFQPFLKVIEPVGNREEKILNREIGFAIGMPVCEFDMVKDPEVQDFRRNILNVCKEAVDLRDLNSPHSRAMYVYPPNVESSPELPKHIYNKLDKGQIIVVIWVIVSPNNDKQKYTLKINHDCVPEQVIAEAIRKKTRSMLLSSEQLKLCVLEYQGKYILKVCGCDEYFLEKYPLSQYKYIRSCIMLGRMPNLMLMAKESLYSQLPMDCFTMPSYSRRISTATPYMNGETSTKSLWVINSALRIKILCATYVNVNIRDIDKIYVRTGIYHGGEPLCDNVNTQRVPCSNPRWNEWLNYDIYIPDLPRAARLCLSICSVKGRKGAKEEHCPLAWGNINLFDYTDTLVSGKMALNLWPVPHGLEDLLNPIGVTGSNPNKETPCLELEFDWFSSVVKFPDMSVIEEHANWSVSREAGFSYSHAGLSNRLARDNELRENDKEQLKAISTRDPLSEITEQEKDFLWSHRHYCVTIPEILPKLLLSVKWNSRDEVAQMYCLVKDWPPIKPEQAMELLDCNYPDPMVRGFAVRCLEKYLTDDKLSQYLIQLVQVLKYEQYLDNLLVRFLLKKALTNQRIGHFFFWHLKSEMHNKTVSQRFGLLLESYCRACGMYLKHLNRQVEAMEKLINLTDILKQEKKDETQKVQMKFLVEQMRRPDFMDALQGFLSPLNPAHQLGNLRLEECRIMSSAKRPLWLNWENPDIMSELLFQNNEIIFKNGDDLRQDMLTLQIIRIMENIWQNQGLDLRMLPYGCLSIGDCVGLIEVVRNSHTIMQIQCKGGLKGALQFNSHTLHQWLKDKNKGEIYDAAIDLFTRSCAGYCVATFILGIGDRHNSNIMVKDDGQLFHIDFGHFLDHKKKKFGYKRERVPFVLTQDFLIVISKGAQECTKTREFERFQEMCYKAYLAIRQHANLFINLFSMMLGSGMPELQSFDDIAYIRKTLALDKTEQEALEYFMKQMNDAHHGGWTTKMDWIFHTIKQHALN

One test addresses truncated PI3Kα (p110α/iSH2 p85α) (Homo sapiens (Human), UniProt P42336). Put plainly: PI3KA_Act fluorescence polarization kinase assay (Ki). Particulars: 1 mM ATP. Type of test: biochemical. Put shortly: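 Ki values result from fitting fluorescence polarization signals to the Morrison equation for tight-binding competitive inhibitors. The detector was GST-Grp1 PH domain with TAMRA-PIP3, read after a 30 min room-temperature reaction of 0.5 nM truncated PI3Kα and 30 μM PIP2 at pH 7.4 in HEPES/NaCl/MgCl2/DTT/CHAPS buffer. Compounds were tested as 12-point 3-fold dilutions from 3 μM.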
On the technique in general: In fluorescence polarisation assays a small probe gives low polarisation when free and higher when bound to something large.
On to `CC(C)(N)C(=O)N1CC[C@@](C)(N2CCc3c(-c4cnc(N)nc4)nc(N4CCOCC4)nc32)C1.Cl` [Example 289, 2-amino-1-{(3R)-3-[4-(2-aminopyrimidin-5-yl)-2-(morpholin-4-yl)-5,6-dihydro-7H-pyrrolo[2,3-d]pyrimidin-7-yl]-3-methylpyrrolidin-1-yl}-2-methylpropan-1-one hydrochloride], for which the “PI3KA_Act Ki” value is given as 0.075 nM.
Still for that read-out and setting: the figure for `CC(C)[C@H](O)C(=O)N1CC[C@](C)(N2CCc3c(-c4cnc(N)nc4)nc(N4CCOCC4)nc32)C1` [Example 272, (2S)-1-{(3S)-3-[4-(2-aminopyrimidin-5-yl)-2-(morpholin-4-yl)-5,6-dihydro-7H-pyrrolo[2,3-d]pyrimidin-7-yl]-3-methylpyrrolidin-1-yl}-2-hydroxy-3-methylbutan-1-one] is 0.022 nM; for `CC(C)(N)C(=O)N1CC[C@@H](N2CCc3c(-c4cnc(N)nc4)nc(N4CCOCC4)nc32)C1.Cl` [Example 282, 2-amino-1-{(3R)-3-[4-(2-aminopyrimidin-5-yl)-2-(morpholin-4-yl)-5,6-dihydro-7H-pyrrolo[2,3-d]pyrimidin-7-yl]pyrrolidin-1-yl}-2-methylpropan-1-one hydrochloride] it is 4.040 nM.
Still for that read-out and setting: next, `C[C@H]1COCCN1c1nc(-c2cnc(N)nc2)c2c(n1)N([C@@]1(C)CCN(C(=O)C(C)(C)CN)C1)CC2.Cl` [Example 484, 3-amino-1-[(3S)-3-{4-(2-aminopyrimidin-5-yl)-2-[(3S)-3-methylmorpholin-4-yl]-5,6-dihydro-7H-pyrrolo[2,3-d]pyrimidin-7-yl}-3-methylpyrrolidin-1-yl]-2,2-dimethylpropan-1-one hydrochloride]: below 0.018 nM; `CC[C@]1(N2CCc3c(-c4cnc(N)nc4)nc(N4CCOCC4)nc32)CCN(C(=O)C(C)(C)N)C1.Cl` [Example 285, 2-amino-1-{(3S)-3-[4-(2-aminopyrimidin-5-yl)-2-(morpholin-4-yl)-5,6-dihydro-7H-pyrrolo[2,3-d]pyrimidin-7-yl]-3-ethylpyrrolidin-1-yl}-2-methylpropan-1-one hydrochloride]: 0.089 nM; `CC1(N2CCc3c(-c4cnc(N)nc4)nc(N4CCOCC4)nc32)CN(S(N)(=O)=O)C1` [Example 208]: 0.062 nM.
Consider `C[C@@]1(N2CCc3c(-c4cnc(N)nc4)nc(N4CCOCC4)nc32)CCN(C(=O)CC#N)C1` [Example 266, 3-{(3R)-3-[4-(2-aminopyrimidin-5-yl)-2-(morpholin-4-yl)-5,6-dihydro-7H-pyrrolo[2,3-d]pyrimidin-7-yl]-3-methylpyrrolidin-1-yl}-3-oxopropanenitrile], for which the “PI3KA_Act Ki” value is 0.139 nM.
With `C[C@@]1(N2CCc3c(-c4cnc(N)nc4)nc(N4CCOCC4)nc32)CCN(C(=O)N2CCC2)C1` [Example 361, {(3R)-3-[4-(2-aminopyrimidin-5-yl)-2-(morpholin-4-yl)-5,6-dihydro-7H-pyrrolo[2,3-d]pyrimidin-7-yl]-3-methylpyrrolidin-1-yl}(azetidin-1-yl)methanone], the “PI3KA_Act Ki” value is 0.078 nM.
With `CC1(C)CN[C@@H]1C(=O)N1CC[C@](C)(N2CCc3c(-c4cnc(N)nc4)nc(N4CCOCC4)nc32)C1.Cl` [Example 362, {(3S)-3-[4-(2-aminopyrimidin-5-yl)-2-(morpholin-4-yl)-5,6-dihydro-7H-pyrrolo[2,3-d]pyrimidin-7-yl]-3-methylpyrrolidin-1-yl}[(2S)-3,3-dimethylazetidin-2-yl]methanone hydrochloride], the “PI3KA_Act Ki” value is listed as 0.041 nM.
Same read-out and setting: the figure for `CNS(=O)(=O)N1CC[C@](C)(N2CCc3c(-c4cnc(N)nc4)nc(N4CCOCC4)nc32)C1` [Example 173] is below 0.018 nM; for `CC(C)(C)OC(=O)N1CC[C@](C)(N2CCc3c(-c4cnc(N)nc4)nc(N4CCOCC4)nc32)C1` [Example 194] it is below 0.018 nM; for `COCC(=O)N1CC[C@@](C)(N2CCc3c(-c4cnc(N)nc4)nc(N4CCOCC4)nc32)C1` [Example 280, 1-{(3R)-3-[4-(2-aminopyrimidin-5-yl)-2-(morpholin-4-yl)-5,6-dihydro-7H-pyrrolo[2,3-d]pyrimidin-7-yl]-3-methylpyrrolidin-1-yl}-2-methoxyethanone] it is 0.154 nM.
Take `C[C@]1(N2CCc3c(-c4cnc(N)nc4)nc(N4CCOCC4)nc32)CCN(C(=O)[C@H](N)CF)C1.Cl` [Example 292, (2S)-2-amino-1-{(3S)-3-[4-(2-aminopyrimidin-5-yl)-2-(morpholin-4-yl)-5,6-dihydro-7H-pyrrolo[2,3-d]pyrimidin-7-yl]-3-methylpyrrolidin-1-yl}-3-fluoropropan-1-one hydrochloride]: the “PI3KA_Act Ki” value is given as below 0.018 nM.
The Ki is the dissociation constant of the complex between target and ligand, obtained from inhibition or displacement. A higher Ki goes with lower affinity. For the compound `[2H]C1([2H])CN(c2nc(-c3cnc(N)nc3)c3c(n2)N([C@@]2(C)CCN(C(=O)C4(C)CC4)C2)CC3)CC([2H])([2H])O1` [Example 237], the affinity corresponds to a Ki of 0.025 nM.
On to `CC(C)[C@@H](N)C(=O)N1CC[C@@H](N2CCc3c(-c4cnc(N)nc4)nc(N4CCOCC4)nc32)C1.Cl` [Example 286, (2R)-2-amino-1-{(3R)-3-[4-(2-aminopyrimidin-5-yl)-2-(morpholin-4-yl)-5,6-dihydro-7H-pyrrolo[2,3-d]pyrimidin-7-yl]pyrrolidin-1-yl}-3-methylbutan-1-one hydrochloride], for which the “PI3KA_Act Ki” value came out at 5.810 nM.
Same read-out and setting: the figure for `CN1CC[C@H]1C(=O)N1CC[C@](C)(N2CCc3c(-c4cnc(N)nc4)nc(N4CCOCC4)nc32)C1` [Example 354, {(3S)-3-[4-(2-aminopyrimidin-5-yl)-2-(morpholin-4-yl)-5,6-dihydro-7H-pyrrolo[2,3-d]pyrimidin-7-yl]-3-methylpyrrolidin-1-yl}[(2S)-1-methylazetidin-2-yl]methanone] is 0.049 nM; for `CN(C)C(=O)CN1CC[C@](C)(N2CCc3c(-c4cnc(N)nc4)nc(N4CCOCC4)nc32)C1` [Example 403, 2-{(3S)-3-[4-(2-aminopyrimidin-5-yl)-2-(morpholin-4-yl)-5,6-dihydro-7H-pyrrolo[2,3-d]pyrimidin-7-yl]-3-methylpyrrolidin-1-yl}-N,N-dimethylacetamide] it is 0.053 nM.
Take `CC(C)(O)C(=O)N1CC[C@](C)(N2CCc3c(-c4cnc(N)nc4)nc(N4CCOCC4)nc32)C1` [Example 275, 1-{(3S)-3-[4-(2-aminopyrimidin-5-yl)-2-(morpholin-4-yl)-5,6-dihydro-7H-pyrrolo[2,3-d]pyrimidin-7-yl]-3-methylpyrrolidin-1-yl}-2-hydroxy-2-methylpropan-1-one]: the “PI3KA_Act Ki” value was found to be 0.030 nM.
As to `CCC(C)(N)C(=O)N1CC[C@](C)(N2CCc3c(-c4cnc(N)nc4)nc(N4CCOCC4)nc32)C1.Cl` (stereo partly drawn) [Example 290, 2-amino-1-{(3S)-3-[4-(2-aminopyrimidin-5-yl)-2-(morpholin-4-yl)-5,6-dihydro-7H-pyrrolo[2,3-d]pyrimidin-7-yl]-3-methylpyrrolidin-1-yl}-2-methylbutan-1-one hydrochloride], the “PI3KA_Act Ki” value was below 0.018 nM.
On the same count and under the same terms, next, `C[C@]1(N2CCc3c(-c4cnc(N)nc4)nc(N4CCOCC4)nc32)CCN(C(=O)[C@@H]2CCOC2)C1` [Example 374, {(3S)-3-[4-(2-aminopyrimidin-5-yl)-2-(morpholin-4-yl)-5,6-dihydro-7H-pyrrolo[2,3-d]pyrimidin-7-yl]-3-methylpyrrolidin-1-yl}[(3R)-tetrahydrofuran-3-yl]methanone]: 0.027 nM; `C[C@H]1COCCN1c1nc(-c2cnc(N)nc2)c2c(n1)N([C@@]1(C)CCN(C(=O)[C@H](N)CF)C1)CC2.Cl` [Example 480, (2S)-2-amino-1-[(3S)-3-{4-(2-aminopyrimidin-5-yl)-2-[(3S)-3-methylmorpholin-4-yl]-5,6-dihydro-7H-pyrrolo[2,3-d]pyrimidin-7-yl}-3-methylpyrrolidin-1-yl]-3-fluoropropan-1-one hydrochloride]: below 0.018 nM.
Still for that read-out and setting: the figure for `C[C@]1(N2CCc3c(-c4cnc(N)nc4)nc(N4CCOCC4)nc32)CCN(C(=O)[C@]2(C)CCN2)C1.Cl` [Example 350, {(3S)-3-[4-(2-aminopyrimidin-5-yl)-2-(morpholin-4-yl)-5,6-dihydro-7H-pyrrolo[2,3-d]pyrimidin-7-yl]-3-methylpyrrolidin-1-yl}[(2S)-2-methylazetidin-2-yl]methanone hydrochloride] is 0.045 nM; for `C[C@@]1(N2CCc3c(-c4cnc(N)nc4)nc(N4CCOCC4)nc32)CCN(C(=O)CC(F)(F)F)C1` [Example 308, 1-{(3R)-3-[4-(2-aminopyrimidin-5-yl)-2-(morpholin-4-yl)-5,6-dihydro-7H-pyrrolo[2,3-d]pyrimidin-7-yl]-3-methylpyrrolidin-1-yl}-3,3,3-trifluoropropan-1-one] it is 0.126 nM; for `C[C@@H]1COCCN1c1nc(-c2cnc(N)nc2)c2c(n1)N([C@@]1(C)CCNC1)CC2` [Example 225] it is 4.151 nM.
Still for that read-out and setting: next, `C[C@H](O)C(=O)N1CC[C@@](C)(N2CCc3c(-c4cnc(N)nc4)nc(N4CCOCC4)nc32)C1` [Example 270, (2S)-1-{(3R)-3-[4-(2-aminopyrimidin-5-yl)-2-(morpholin-4-yl)-5,6-dihydro-7H-pyrrolo[2,3-d]pyrimidin-7-yl]-3-methylpyrrolidin-1-yl}-2-hydroxypropan-1-one]: 0.074 nM; `CNCC(C)(C)C(=O)N1CC[C@](C)(N2CCc3c(-c4cnc(N)nc4)nc(N4CCOCC4)nc32)C1.Cl` [Example 306, 1-{(3S)-3-[4-(2-aminopyrimidin-5-yl)-2-(morpholin-4-yl)-5,6-dihydro-7H-pyrrolo[2,3-d]pyrimidin-7-yl]-3-methylpyrrolidin-1-yl}-2,2-dimethyl-3-(methylamino) propan-1-one hydrochloride]: below 0.018 nM.

Staying with this test, now noted: 1 mM ATP, hydrochloride.
In the case of `C[C@H]1COCCN1c1nc(-c2cnc(N)nc2)c2c(n1)N(C1(C)CCCNC1)CC2` (single isomer, unassigned) [Example 517, hydrochloride], the “PI3KA_Act Ki” value worked out at 9.319 nM.
